Source: PubChem BioAssay (NCI)
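Tested at 5 concentrations; 48 h exposure; 96-well plates; endpoints linearly interpolated, else capped at highest concentration. At the GI50, growth is halved. At the TGI there is no net growth.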

Tests used:
Test in all cases: NCI tumour cell line growth inhibition, 48 h; in the data active = GI50 below about 0.43 µM; inactive = the rest
786-0 renal = test system: 786-0 renal
A498 renal = test system: A498 renal
A549 NSCLC = test system: A549 NSCLC
ACHN renal = test system: ACHN renal
BT-549 breast = test system: BT-549 breast
CAKI-1 renal = test system: CAKI-1 renal
CCRF-CEM leukemia = test system: CCRF-CEM leukemia
COLO 205 colon = test system: COLO 205 colon
DU-145 prostate = test system: DU-145 prostate
EKVX NSCLC = test system: EKVX NSCLC
HCC-2998 colon = test system: HCC-2998 colon
HCT-116 colon = test system: HCT-116 colon
HCT-15 colon = test system: HCT-15 colon
HL-60(TB) leukemia = test system: HL-60(TB) leukemia
HOP-62 NSCLC = test system: HOP-62 NSCLC
HOP-92 NSCLC = test system: HOP-92 NSCLC
HS 578T breast = test system: HS 578T breast
HT29 colon = test system: HT29 colon
IGROV1 ovarian = test system: IGROV1 ovarian
K-562 leukemia = test system: K-562 leukemia
KM12 colon = test system: KM12 colon
LOX IMVI melanoma = test system: LOX IMVI melanoma
M14 melanoma = test system: M14 melanoma
MALME-3M melanoma = test system: MALME-3M melanoma
MCF7 breast = test system: MCF7 breast
MDA-MB-231 breast = test system: MDA-MB-231 breast
MDA-MB-435 = test system: MDA-MB-435
MOLT-4 leukemia = test system: MOLT-4 leukemia
NCI-H226 lung = test system: NCI-H226 lung
NCI-H23 lung = test system: NCI-H23 lung
NCI-H460 lung = test system: NCI-H460 lung
NCI-H522 lung = test system: NCI-H522 lung
NCI/ADR-RES ovarian = test system: NCI/ADR-RES ovarian
OVCAR-3 ovarian = test system: OVCAR-3 ovarian
OVCAR-4 ovarian = test system: OVCAR-4 ovarian
OVCAR-5 ovarian = test system: OVCAR-5 ovarian
OVCAR-8 ovarian = test system: OVCAR-8 ovarian
PC-3 prostate = test system: PC-3 prostate
RPMI-8226 leukemia = test system: RPMI-8226 leukemia
RXF 393 renal = test system: RXF 393 renal
SF-268 CNS = test system: SF-268 CNS
SF-295 CNS = test system: SF-295 CNS
SF-539 CNS = test system: SF-539 CNS
SK-MEL-2 melanoma = test system: SK-MEL-2 melanoma
SK-MEL-28 melanoma = test system: SK-MEL-28 melanoma
SK-MEL-5 melanoma = test system: SK-MEL-5 melanoma
SK-OV-3 ovarian = test system: SK-OV-3 ovarian
SN12C renal = test system: SN12C renal
SNB-19 CNS = test system: SNB-19 CNS
SNB-75 CNS = test system: SNB-75 CNS
SR leukemia = test system: SR leukemia
SW-620 colon = test system: SW-620 colon
T-47D breast = test system: T-47D breast
TK-10 renal = test system: TK-10 renal
U251 CNS = test system: U251 CNS
UACC-257 melanoma = test system: UACC-257 melanoma
UACC-62 melanoma = test system: UACC-62 melanoma
UO-31 renal = test system: UO-31 renal

CC1(C)N=C(N)N=C(N)N1c1ccc(OCCCNC(=O)Nc2ccc(S(=O)(=O)F)cc2)c(Cl)c1
13.3 µM: TGI (SK-MEL-5 melanoma)
> 75 µM: TGI (RPMI-8226 leukemia)
61.9 µM: TGI (HOP-92 NSCLC)
> 73 µM: TGI (PC-3 prostate)
99.4 µM: TGI (A498 renal)
> 65.3 µM: TGI (HL-60(TB) leukemia)
active: GI50 (786-0 renal) 0.417 µM | GI50 (A549 NSCLC) 0.0732 µM | GI50 (CCRF-CEM leukemia) 0.208 µM | GI50 (DU-145 prostate) 0.277 µM | GI50 (HCT-116 colon) 0.0613 µM | GI50 (HL-60(TB) leukemia) 0.113 µM | GI50 (HT29 colon) 0.1 µM | GI50 (IGROV1 ovarian) 0.281 µM | GI50 (K-562 leukemia) 0.0497 µM | GI50 (LOX IMVI melanoma) 0.12 µM | GI50 (MCF7 breast) 0.238 µM | GI50 (MDA-MB-435) 0.143 µM | GI50 (MOLT-4 leukemia) 0.386 µM | GI50 (NCI-H460 lung) 0.0486 µM | GI50 (OVCAR-5 ovarian) 0.419 µM | GI50 (PC-3 prostate) 0.165 µM | GI50 (SF-268 CNS) 0.199 µM | GI50 (SK-MEL-5 melanoma) 0.146 µM | GI50 (SN12C renal) 0.111 µM | GI50 (SR leukemia) 0.0376 µM | GI50 (SW-620 colon) 0.0778 µM | GI50 (U251 CNS) 0.211 µM | GI50 (UACC-62 melanoma) 0.268 µM
> 95 µM: TGI (CAKI-1 renal)
> 100 µM: TGI (786-0 renal) | TGI (A549 NSCLC) | TGI (ACHN renal) | TGI (BT-549 breast) | TGI (CCRF-CEM leukemia) | TGI (COLO 205 colon) | TGI (DU-145 prostate) | TGI (EKVX NSCLC) | TGI (HCC-2998 colon) | TGI (HCT-116 colon) | TGI (HCT-15 colon) | TGI (HOP-62 NSCLC) | TGI (HT29 colon) | TGI (IGROV1 ovarian) | TGI (K-562 leukemia) | TGI (KM12 colon) | TGI (LOX IMVI melanoma) | TGI (M14 melanoma) | TGI (MALME-3M melanoma) | TGI (MCF7 breast) | TGI (MDA-MB-231 breast) | TGI (MDA-MB-435) | TGI (MOLT-4 leukemia) | TGI (NCI-H226 lung) | TGI (NCI-H23 lung) | TGI (NCI-H522 lung) | TGI (NCI/ADR-RES ovarian) | TGI (OVCAR-3 ovarian) | TGI (OVCAR-4 ovarian) | TGI (OVCAR-5 ovarian) | TGI (OVCAR-8 ovarian) | TGI (RXF 393 renal) | TGI (SF-268 CNS) | TGI (SF-295 CNS) | TGI (SK-MEL-2 melanoma) | TGI (SK-MEL-28 melanoma) | TGI (SK-OV-3 ovarian) | TGI (SN12C renal) | TGI (SNB-19 CNS) | TGI (SR leukemia) | TGI (SW-620 colon) | TGI (T-47D breast) | TGI (TK-10 renal) | TGI (U251 CNS) | TGI (UACC-257 melanoma) | TGI (UACC-62 melanoma) | TGI (UO-31 renal)
> 67.4 µM: TGI (SF-539 CNS)
50 µM: TGI (SNB-75 CNS)
> 78.8 µM: TGI (HS 578T breast)
inactive: GI50 (A498 renal) 4.57 µM | GI50 (ACHN renal) 4.45 µM | GI50 (BT-549 breast) 11.5 µM | GI50 (CAKI-1 renal) 17.9 µM | GI50 (COLO 205 colon) 0.854 µM | GI50 (EKVX NSCLC) 0.874 µM | GI50 (HCC-2998 colon) 0.832 µM | GI50 (HCT-15 colon) 6.62 µM | GI50 (HOP-62 NSCLC) 0.82 µM | GI50 (HOP-92 NSCLC) 2.74 µM | GI50 (HS 578T breast) 4.6 µM | GI50 (KM12 colon) 0.504 µM | GI50 (M14 melanoma) 0.493 µM | GI50 (MALME-3M melanoma) 2.02 µM | GI50 (MDA-MB-231 breast) 3.34 µM | GI50 (NCI-H226 lung) 11.2 µM | GI50 (NCI-H23 lung) 0.488 µM | GI50 (NCI-H522 lung) 0.79 µM | GI50 (NCI/ADR-RES ovarian) 98.5 µM | GI50 (OVCAR-3 ovarian) 1.55 µM | GI50 (OVCAR-4 ovarian) 4.05 µM | GI50 (OVCAR-8 ovarian) 0.697 µM | GI50 (RPMI-8226 leukemia) 1.64 µM | GI50 (RXF 393 renal) 12.9 µM | GI50 (SF-295 CNS) 0.504 µM | GI50 (SF-539 CNS) 1.3 µM | GI50 (SK-MEL-2 melanoma) 0.79 µM | GI50 (SK-MEL-28 melanoma) 1.74 µM | GI50 (SK-OV-3 ovarian) 8.83 µM | GI50 (SNB-19 CNS) 1.08 µM | GI50 (SNB-75 CNS) 1.02 µM | GI50 (T-47D breast) 5.65 µM | GI50 (TK-10 renal) 0.907 µM | GI50 (UACC-257 melanoma) 5.11 µM | GI50 (UO-31 renal) 69.5 µM
> 37.6 µM: TGI (NCI-H460 lung)
